Like-named read-outs stand apart in the source and are kept apart here.
How the values were obtained:
Assay type in all cases: cell-based
[1] = system: MDA-MB-231 mammospheres; test: Viability of MDA-MB-231 mammospheres, Alamar Blue assay (Table 1); details: for IC50: read-out: IC50 (μM), growth of MDA-MB-231 mammospheres
[2] = system: MDA-MB-231 mammospheres; test: Cytotoxicity in MDA-MB-231 mammospheres (Table 2); details: read-out: IC50 (μM) MDA-MB-231 mammospheres 72 h
[3] = system: MCF-7 mammospheres; test: Mammosphere formation assay, MCF-7; details: for Number of MCF-7 mammospheres / Size (μm) of MCF-7 mammospheres: primary mammospheres grown 96 hr, incubated with compound 72 hrs, >50 μm analyzed; for decrease in number of MCF-7 mammospheres / decrease in size of MCF-7 mammospheres: versus control
Method: (§1) Since the breast cancer stem cells formed a mass of colonies in the form of floating spheres without attaching to a surface of a plate, the size and number of the masses were observed by a mammosphere formation assay to determine a cancer-stem-cell-specific effect.
(§2) Single-cell suspension was cultured at a density of 1,000 to 15,000 cells/well using a MammoCult™ Human Medium kit (Stemcell Technologies Inc Vancouver, CA), and the spherical cells were counted and observed under a microscope.
(§3) The mammosphere assay is based on the concept that when cells proliferate in three-dimensional spheroid structures, only cancer cells with stem-like characteristics are able to evade anoikis.

[4] = system: MDA-MB-231 mammospheres; test: Invasion / dispersion of spheroids into 3D collagen; details: cells incubated with compound 72 hr, FIG. 4
Excerpt: CSCs are associated with highly invasive phenotype and it is believed that this subset of cancer cells gives rise to metastases. In order to monitor the dissemination of MCF-7 and MDA-MB-231 breast cancer spheroids, the spheroids were embedded into three-dimensional (3D) collagen scaffold using Aim Biotech 3D cell culture chips. Collagen with spheroids was introduced into the central region of the microfluidic system where it polymerized via thermal cross-linking. Cell culture media was introduced into media channels forcing spheroids to move through collagen towards the media.
Thus, whether Ru^TEN complexes and salinomycin affected the invasive properties of MDA-MB-231 spheroids was then investigated. To this purpose, MDA-MB-231 monolayer cells were incubated with compounds of interest (e.g., Ru^TEN complexes of Examplel or salinomycin) for 72 hr, then the delamination was allowed to proceed for over 28 hr. Results are depicted in FIG. 4.

[5] = system: MDA-MB-231; test: Anti-proliferative activity (MTT assay), MDA-MB-231
Method: (§4) Cells were seeded in 96-well plates and maintained for 14-16 hours, then were treated with dimethylsulfoxide (DMSO) or test compound at various concentrations (i.e., 0.312, 1.25, 5, 20 μM) for 72 hrs. The cells were then washed with phosphate buffer saline (PBS) twice, added a medium containing 3-(4,5-dimethylthiazol-2-yl)-2,5-diphenyltetrazolium bromide (MTT) at a final concentration of 0.5 mg/mL, and incubated for 4 hr at 37° C. in a humidified incubator containing 5% CO2 in air. Cells having functional succinate dehydrogenase of mitochondria would convert MTT to formazan. Then, the medium was replaced with 100 μL of DMSO for 30 min at room temperature, and the 96-well plate was read by an ELISA reader at 550 nm to get the absorbance density values. The IC50 values of death cell lines were calculated accordingly.
(§5) The Ru^TEN complexes of Example 1 were evaluated for their anti-proliferative properties in two breast cancer cell lines, namely, MCF-7 and MDA-MB-231 cells via MTT assay. […] MCF-7 is a chemotherapy-responsive breast cancer cell line of luminal subtype with high expression of estrogen receptor (ER), whereas MDA-MB-231 is a triple negative breast cancer (TNBC) or basal-like breast cancer cell ine. TNBC is defined as highly invasive cancer that lacks expression of ER, progesterone receptor (PR) and Her-2; it has one of the worst outcomes among all subtypes of breast cancers. The aggressive nature of TNBC may be related to the presence of breast cancer stem cells within the tumor; therefore, MDA-MB-231 cells are often used as a model of mammary cancer stem cells.
(§6) The cytotoxicity of Ru^TEN complexes of Example 1 was compared to that of cisplatin or oxaliplatin, which were known to induce their anticancer effects by the mode of action different from ER stress. Three CSC-selective organic compounds, salinomycin, etoposide and abamectin, were also used for comparison. Briefly, MCF-7 and MDA-MB-231 cells were respectively treated with increasing concentrations of compounds of interest for 24 or 72 hrs and then the cell viability was measured.

[6] = system: MDA-MB-231 secondary mammospheres; test: Secondary mammosphere formation (self-renewal), MDA-MB-231; details: for Number of MDA-MB-231 secondary mammospheres / Size (μm) of MDA-MB-231 secondary mammospheres: from drug-treated primary mammospheres, grown in drug-free conditions for 7 days; for propensity to form secondary mammospheres: single cells from drug-treated primary mammospheres, 7 days drug-free, FIG. 2
Method: To this purpose, drug-treated primary MDA-MB-231 mammospheres were dissociated into single cell suspensions and incubated for 7 days in ultralow attachment drug-free conditions.

[7] = system: MCF-7; test: cells; details: read-out: IC50 (μM) MCF-7 72 h
Method: as §4, §5, §6

[8] = system: MDA-MB-231 mammospheres; test: Mammosphere formation assay, MDA-MB-231 primary; details: for Number of MDA-MB-231 mammospheres / Size (μm) of MDA-MB-231 mammospheres: primary mammospheres grown 96 hr, incubated with compound 72 hrs, >50 μm analyzed; for decrease in number of MDA-MB-231 mammospheres / decrease in size of MDA-MB-231 mammospheres: versus control
Method: as §1, §2, §3

[9] = system: ALDHbright subpopulation of MDA-MB-231 cells; test: ALDEFLUOR assay (ALDH activity); details: versus control, FIG. 3
Method: The cells were stained with […] bodipy-aminoacetaldehyde (BAAA), and then cultured at 37° C. for 45 minutes. An ALDH1 inhibitor, diethyl aminobenzaldehyde (DEAB), was used as the negative control. The stained cells were assayed using BD FACS Aria III. In this case, the positive fluorescent ALDH1-expressed cells (ALDH+) were detected in a green fluorescent channel (520 to 540 nm).
While CD44+/CD24−/low phenotype has often been associated with breast CSC/progenitor cell features, yet there is no correlation between the presence of CD44+/CD24−/low cells and clinical outcome and formation of distant metastases. It is the presence of aldehyde dehydrogenase (ALDH) bright cells which separates highly tumorigenic CD44+/CD24−/low/ALDHbright population from non-tumorigenic cells. Unlike CD44+/CD24−/low, ALDH is a predictor of metastasis and is associated with a poor clinical outcome. The main role of ALDH enzymes is the detoxification of aldehydes generated in various metabolic processes into carboxylic acids. However, several ALDH isoforms are involved in retinoic acid signaling and this particular function was linked to the “stemness” of CSCs. The functional activity of ALDHs can be accurately determined by ascertaining the cellular conversion of […] (BAAA) into a fluorescent molecule BODIPY-aminoacetate (BAA). ATP-binding cassette (ABC)-transporter inhibitors in the assay buffer prevent the efflux of BAA from the cells, resulting in the accumulation of BAA in cytoplasm.

[10] = 24 h, MTT, read-out: IC50 (μM) MDA-MB-231 24 h
[11] = 72 h, MTT, read-out: IC50 (μM) MDA-MB-231 72 h

Row | Molecule | IC50 [1] [µM] | IC50 ([2]; 72 h) [µM] | Number of MCF-7 mammospheres [3] | Size (μm) of MCF-7 mammospheres [3] [μm] | decrease in number of MCF-7 mammospheres [3] | decrease in size of MCF-7 mammospheres [3] | dispersion of cells into collagen after 4 hr [4] | dispersion of cells into collagen after 28 hr / entire incubation period [4] | IC50 [5, 10] [µM] | IC50 [5, 11] [µM] | Number of MDA-MB-231 secondary mammospheres [6] | Size (μm) of MDA-MB-231 secondary mammospheres [6] [μm] | propensity to form secondary mammospheres [6] | IC50 ([7]; 72 h, MTT) [µM] | Number of MDA-MB-231 mammospheres [8] | Size (μm) of MDA-MB-231 mammospheres [8] [μm] | decrease in number of MDA-MB-231 mammospheres [8] | decrease in size of MDA-MB-231 mammospheres [8] | inhibition of mammosphere growth, MDA-MB-231 [8] | further results
1 | Cc1c(C)c(C)c(C)c(C)c1C.Clc1cccc([N+]2=Cc3ccc4ccccc4[n+]3[Ru-]2[Cl])c1.[Cl-] [Ru^TEN4, [(η6-Hexamethylbenzene)RuCl(3-chloro-N-(2-quinolinylmethylene)aniline)]Cl] | 11 | 7.2 ± 1.8 | 236 ± 88 | 105 ± 18 | 10% | 17% | did not exhibit significant dispersion | only slight dispersion | 9.2 ± 1.3 | 1.4 ± 0.3 | 91 ± 33 | 70 ± 6 | drastically reduced propensity to form secondary mammospheres | 2.5 ± 0.7 | 118 ± 17 | 95 ± 37 | 17% | 10% |  | 
2 | COc1ccc([N+]2=Cc3ccc4ccccc4[n+]3[Ru-]2[Cl])cc1.Cc1c(C)c(C)c(C)c(C)c1C.[Cl-] [Ru^TEN2, [(η6-hexamethylbenzene)RuCl(4-methoxv-N-(2-quinolinyl-methylene)-aniline)]Cl] | > 20 | > 40 | 255 ± 175 | 114 ± 24 |  |  | did not exhibit significant dispersion | only slight dispersion | 10 ± 1 | 2.2 ± 0.3 | 186 ± 45 | 85 ± 15 | only slight changes in size and number of mammospheres | 4.1 ± 0.9 | 141 ± 41 | 98 ± 18 |  |  | did not inhibit mammosphere growth | 
3 | COc1cc([C@@H]2c3cc4c(cc3[C@@H](O[C@@H]3O[C@@H]5CO[C@@H](C)O[C@H]5[C@H](O)[C@H]3O)[C@H]3COC(=O)[C@H]23)OCO4)cc(OC)c1O [Etoposide, etoposide] |  |  | 237 ± 11 | 135 ± 6 | 10-15% | did not affect the size |  |  |  |  | 73 ± 22 | 63 ± 4 |  |  | 107 ± 37 | 123 ± 20 | 10-15% | did not affect the size |  | IC50 ([2]; Homo sapiens, MDA-MB-231, 72 h): > 40 µM; IC50 ([5]; Homo sapiens, MDA-MB-231, 24 h, read-out: IC50 (μM) MDA-MB-231 24 h): > 1000 µM; IC50 ([5]; Homo sapiens, MDA-MB-231, 72 h, read-out: IC50 (μM) MDA-MB-231 72 h): 6.4 ± 1.2 µM; IC50 ([7]; Homo sapiens, MCF7, 72 h): 0.79 ± 0.21 µM; reduction of ALDHbright sub-population [9]: 52%
4 | O=C1[O][Pt]2([NH][C@@H]3CCCC[C@H]3[NH]2)[O]C1=O [Oxaliplatin, oxaliplatin] |  | > 40 | 274 ± 93 | 107 ± 17 |  |  |  |  | 348 ± 78 | 4.6 ± 1 | 122 ± 10 | 86 ± 14 |  | 1.1 ± 0.2 | 144 ± 50 | 99 ± 27 |  |  | did not show any potency in inhibiting mammosphere growth | viability of MDA-MB-231 mammospheres [1]: did not affect the viability; inhibition of mammosphere growth, MCF-7 [3]: did not show any potency in inhibiting mammosphere growth
5 | abamectin |  | 4 ± 0.5 | 147 ± 33 | 77 ± 13 |  |  |  |  | 18 ± 6 | 6.4 ± 2.3 |  |  |  | 7 ± 2.2 | 4 ± 1 | 76 ± 8 |  |  |  | 

Source: US11958869B2, “Ruthenium arene Schiff-base complexes and uses thereof” (CITY UNIVERSITY OF HONG KONG, priority 2021, dated 2024)
